Measured values reported in US5182283A, “Heterocyclic compounds their preparation and use” (Novo Nordisk A/S, priority 1990, dated 1993).
pIC50, pKd: −log10 of the molar value. Where a name gives a salt, the structure may show the parent alone. Read-outs that look alike come from different tables or passages of the source. Blank lines part the entries; values can stand above or below the compound they belong to.

What was measured:
[1] = biological target: muscarinic acetylcholine receptors; experiment: inhibition of specific binding of ^3 H-Oxotremorine-M (^3 H-Oxo) in rat cortex; parameters: species or system male Wistar rats; details: read-out: Inhibition in vitro OXO BINDING (IC50, concentration which inhibits the specific binding of ^3 H-Oxo by 50%), ^3 H-Oxotremorine 1.0 nM, 30 min at 25° C., pH 7.4, 25-75% inhibition needed for calculation
Procedure: The pharmacological properties of the compounds of the invention can be illustrated by determining their capability to inhibit the specific binding of ^3 H-Oxotremorine-M (^3 H-Oxo).
^3 H-Oxo labels muscarinic receptor in the CNS (with a preference for agonist domaines of the receptors). Three different sites are labelled by ^3 H-Oxo. […] Using the present experimental conditions only the high and medium affinity sites are determined.
The inhibitory effects of compounds on ^3 H-Oxo binding reflects the affinity for muscarinic acetylcholine receptors.
All preparations are performed at 0°-4° C. unless otherwise indicated. Fresh cortex (0.1-1 g) from male Wistar rats (150-250 g) is homogenized for 5-10 s in 10 ml 20 mM Hepes pH: 7.4, with an Ultra-Turrax homogenizer. The homogenizer is rinsed with 10 ml of buffer and the combined suspension centrifuged for 15 min at 40,000×g. The pellet is washed three times with buffer. In each step the pellet is homogenized as before in 2×10 ml of buffer and centrifuged for 10 min at 40,000×g.
The final pellet is homogenized in 20 mM Hepes pH: 7.4 (100 ml per g of original tissue) and used for binding assay. Aliquots of 0.5 ml is added 25 μl of test solution and 25 μl of ^3 H-Oxotremorine (1.0 nM, final concentration) mixed and incubated for 30 min at 25° C. […] After incubation samples are added 5 ml of ice-cold buffer and poured directly onto Whatman GF/C glass fiber filters under suction and immediately washed 2 times with 5 ml of ice-cold buffer. The amount of radioactivity on the filters are determined by conventional liquid scintillation counting. Specific binding is total binding minus non specific binding.
Test substances are dissolved in 10 ml water (if necessary heated on a steambath for less than 5 minutes) at a concentration of 2.2 mg/ml. 25-75% inhibition of specific binding must be obtained before calculation of IC50.
[formula] where Co is specific binding in control assays and Cx is the specific binding in the test assay. (The calculations assume normal mass-action kinetics).

[2] = biological target: muscarinic receptor in the CNS; details: read-out: affinity of ^3 H-Oxo site, cited from earlier work
[3] = in vivo; cited from earlier work
[4] = system: central and peripheral muscarinic effects; details: in vivo; cited from earlier work
[5] = in vivo; cited from earlier work; remark: listed apart in the source

pIC50 [1]: 7.34
SMILES: CCCCCCOc1nccnc1[C@H]1CN2CC[C@@H]1C2 (relative stereo) [Compound 27, Endo-3-(3-hexyloxypyrazinyl)-1-azabicyclo[2.2.2]heptane hydrochlorid hemihydrate]

SMILES: C[N+](C)(C)CC#CCN1CCCC1=O [^3 H-Oxo]
pKd ([2]; first of three sites (high affinity)): 8.74
pKd ([2]; second of three sites (medium affinity)): 7.70
pKd ([2]; third of three sites, not determined under the present conditions): 5.52

pIC50 [1]: 8.25
SMILES: CCCCCCOc1nccnc1[C@@H]1CN2CC[C@@H]1C2 (relative stereo) [Compound 28, Exo-3-(3-hexyloxypyrazinyl)-1-azabicyclo[2.2.1]heptane hydrochloride]

SMILES: CCCCCOc1nccnc1C1CN2CCC1CC2 (stereo not shown) [Compound 25, 3-(3-Pentyloxypyrazinl)-1-azabicyclo[2.2.2]octane hydrochloride]
pIC50 [1]: 8.22

SMILES: FC(F)(F)C(F)(F)C(F)(F)C(F)(F)CCOc1nccnc1C1=CN2CCC1CC2 [Compound 24, 3-(3-(3,3,4,4,5,5,6,6,6)nonafluorohexyloxypyrazinyl)-1-azabicyclo[2.2.2]oct-2-ene hydrochloride]
pIC50 [1]: 6.31

SMILES: COC(=O)C1=CCCN(C)C1 [Arecoline, methyl 1-methyl-1,2,5,6-tetrahydropyridine-3-carboxylate]
biological half life [3]: very short
separation between central and peripheral muscarinic effects [4]: small separation
toxicity [5]: rather toxic
